# Biological target: human sphingosine-1-phosphate receptor 1 (S1P1) (Homo sapiens, UniProt P21453)
# Assay: Inhibition of cAMP production (HTRF cAMP HiRange), S1P1 CHO-K1 cells
# Format: cell-based
# Conditions: inhibition of cAMP production; potency; read-out: hS1P1 CAMP pEC50 (converted)
# Outline: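 CHO-K1 cells co-expressing human S1P1 (C-terminal ProLink tag) and EA-β-arrestin2, plated overnight; after 30 min compound incubation at 37 °C, intracellular cAMP measured by HTRF TR-FRET following 1 h at room temperature. Values normalized to fingolimod.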
# human sphingosine-1-phosphate receptor 1 (S1P1), sequence (P21453 whole entry): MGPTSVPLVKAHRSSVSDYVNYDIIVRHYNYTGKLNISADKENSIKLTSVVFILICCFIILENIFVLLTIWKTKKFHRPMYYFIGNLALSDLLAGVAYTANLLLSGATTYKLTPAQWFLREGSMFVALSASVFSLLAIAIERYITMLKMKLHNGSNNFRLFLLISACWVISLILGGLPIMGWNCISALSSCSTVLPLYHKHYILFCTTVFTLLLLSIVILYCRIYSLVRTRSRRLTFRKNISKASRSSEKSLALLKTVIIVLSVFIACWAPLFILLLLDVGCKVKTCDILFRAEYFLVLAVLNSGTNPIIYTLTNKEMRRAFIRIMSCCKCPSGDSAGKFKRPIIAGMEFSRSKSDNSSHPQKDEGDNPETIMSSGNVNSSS
row,EC50,SMILES
1,< 316 nM,"CC(C)Nc1ccc(-c2nc(-c3ccc4c(c3)CCC(=O)N4)no2)cc1C#N [Compound 259, 2-(isopropylamino)-5-(3-(2-oxo-1,2,3,4-tetrahydroquinolin-6-yl)-1,2,4-oxadiazol-5-yl)benzonitrile]"
2,> 316 nM,"COc1cccc(F)c1-c1noc(-c2ccc3c(c2)nnn3C(C)C)n1 [Compound 260, 3-(2-fluoro-6-methoxy-phenyl)-5-(1-isopropylbenzo-triazol-5-yl)-1,2,4-oxadiazole]"
3,< 316 nM,"CCC1(CC)CC(=O)c2cc(-c3nc(-c4ccc(NS(C)(=O)=O)cc4)no3)ccc2O1 [Compound 262, N-(4-(5-(2,2-diethyl-4-oxochroman-6-yl)-l,2,4-oxadiazol-3-yl)phenyl)methane-sulfonamide]"
4,> 316 nM,"Cc1ccncc1-c1noc(-c2ccc3nnn(C(C)C)c3c2)n1 [Compound 264, 6-[3-(4-methylpyridin-3-yl)-1,2,4-oxadiazol-5-yl]-1-(propan-2-yl)-1H-1,2,3-benzotriazole]"
5,< 316 nM,"CCC1(CC)CC(=O)c2cc(-c3nc(-c4sccc4C)no3)ccc2O1 [Compound 265, 2,2-diethyl-6-(3-(3-methylthiophen-2-yl)-1,2,4-oxadiazol-5-yl)chroman-4-one]"
6,> 316 nM,"CCC1(CC)CC(=O)c2cc(-c3nc(-c4ccc(C)cc4)no3)ccc2O1 [Compound 269, 2,2-diethyl-6-[3-(p-tolyl)-1,2,4-oxadiazol-5-yl]chroman-4-one]"
7,> 316 nM,"CC(C)CCn1nnc2cc(-c3nc(-c4ccccc4)no3)ccc21 [Compound 271, 1-(3-methylbutyl)-5-(3-phenyl-1,2,4-oxadiazol-5-yl)-1H-1,2,3-benzotriazole]"
8,> 316 nM,"COc1cncc(-c2nc(-c3ccc4c(c3)nnn4C(C)C)no2)c1 [Compound 272, 3-(1-isopropyl-1H-benzo[d][1,2,3]triazol-5-yl)-5-(5-methoxy-pyridin-3-yl)-1,2,4-oxadiazole]"
9,> 316 nM,"CC1(C)CC(=O)c2cc(-c3nc(-c4cccnc4)no3)ccc2O1 [Compound 274, 2,2-dimethyl-6-[3-(pyridin-3-yl)-1,2,4-oxadiazol-5-yl]-3,4-dihydro-2H-1-benzopyran-4-one]"
10,> 316 nM,"COc1ccc(-c2nc(-c3ccc4c(c3)nnn4C3CCCC3)no2)cc1OC [Compound 275, 3-(1-cyclopentyl-1H-benzo[d][1,2,3]triazol-5-yl)-5-(3,4-dimethoxyphenyl)-1,2,4-oxadiazole]"
11,< 316 nM,"COc1ccccc1-c1coc(-c2ccc3c(c2)nnn3C(C)C)n1 [Compound 277, 5-[4-(2-methoxy-phenyl)-1,3-oxazol-2-yl]-1-(propan-2-yl)-1H-1,2,3-benzotriazole]"
12,> 316 nM,"CC(C)n1nnc2cc(-c3noc(-c4ccccc4C#N)n3)ccc21 [Compound 279, 2-(3-(1-isopropyl-1H-benzo[d][1,2,3]triazol-5-yl)-1,2,4-oxadiazol-5-yl)benzonitrile]"
13,> 316 nM,"O=C1CC2(CCCCC2)Oc2ccc(-c3nc(-c4ccncc4)no3)cc21 [Compound 280, 6-[3-(pyridin-4-yl)-1,2,4-oxadiazol-5-yl]-3,4-dihydrospiro[1-benzopyran-2,1′-cyclohexane]-4-one]"
14,> 316 nM,"COc1cc(-c2noc(-c3ccc4c(c3)nnn4C3CCCC3)n2)ccn1 [Compound 281, 1-cyclopentyl-5-[3-(2-methoxypyridin-4-yl)-1,2,4-oxadiazol-5-yl]-1H-1,2,3-benzotriazole]"
15,< 316 nM,"CC(C)n1nnc2cc(-c3nc(-c4ccccc4Br)no3)ccc21 [Compound 282, 5-[3-(2-bromophenyl)-1,2,4-oxadiazol-5-yl]-1-(propan-2-yl)-1H-1,2,3-benzotriazole]"
16,> 316 nM,"Brc1ccccc1-c1nc(-c2ccc3c(c2)nnn3Cc2cccnc2)no1 [Compound 283, 5-(2-bromophenyl)-3-(1-(pyridin-3-ylmethyl)-1H-benzo[d][1,2,3]triazol-5-yl)-1,2,4-oxadiazole]"
17,> 316 nM,"COc1ccc(-c2noc(-c3ccc4c(c3)nnn4C3CCCCC3)n2)cc1C(F)(F)F [Compound 284, 1-cyclohexyl-5-{3-[4-methoxy-3-(trifluoro-methyl)phenyl]-1,2,4-oxadiazol-5-yl}-1H-1,2,3-benzotriazole]"
18,> 316 nM,"c1ccc(Oc2ccc(-c3noc(-c4ccc5c(c4)nnn5C4CC4)n3)cc2)cc1 [Compound 285, 1-cyclopropyl-5-[3-(4-phenoxyphenyl)-1,2,4-oxadiazol-5-yl]-1H-1,2,3-benzotriazole]"
19,< 316 nM,"COc1ccccc1-c1noc(-c2ccc3c(c2)nnn3C(C)C)n1 [Compound 286, 5-(1-isopropyl-1H-benzo[d][1,2,3]triazol-5-yl)-3-(2-methoxy-phenyl)-1,2,4-oxadiazole]"
20,> 316 nM,"Cc1ccccc1-c1noc(-c2ccc3c(c2)nnn3CC2CC2)n1 [Compound 288, 1-(cyclopropylmethyl)-5-[3-(2-methylphenyl)-1,2,4-oxadiazol-5-yl]-1H-1,2,3-benzotriazole]"
21,> 316 nM,"CC(C)n1nnc2cc(-c3noc(-c4ccc(C5CCCCC5)cc4)n3)ccc21 [Compound 290, 5-(4-cyclohexylphenyl)-3-(1-isopropyl-1H-benzo[d][1,2,3]triazol-5-yl)-1,2,4-oxadiazole]"

row,EC50,SMILES
1,> 316 nM,"CC1(C)CC(=O)c2cc(-c3nc(-c4ccncc4)no3)ccc2O1 [Compound 291, 2,2-dimethyl-6-[3-(pyridin-4-yl)-1,2,4-oxadiazol-5-yl]-3,4-dihydro-2H-1-benzopy ran-4-one]"
2,> 316 nM,"c1ccc(-c2noc(-c3ccc4c(c3)nnn4C3CCCCC3)n2)cc1 [Compound 292, 1-cyclohexyl-5-(3-phenyl-1,2,4-oxadiazol-5-yl)-1H-1,2,3-benzotriazole]"
3,> 316 nM,"CC(C)n1nnc2cc(-c3nc(-c4ccccc4)co3)ccc21 [Compound 294, 5-(4-phenyl-1,3-oxazol-2-yl)-1-(propan-2-yl)-1H-1,2,3-benzotriazole]"
4,> 316 nM,"c1cc(-c2noc(-c3ccc4c(c3)nnn4C3CC3)n2)ccn1 [Compound 295, 1-cyclopropyl-5-[3-(pyridin-4-yl)-1,2,4-oxadiazol-5-yl]-1H-1,2,3-benzotriazole]"
5,> 316 nM,"CC(C)n1nnc2cc(-c3nc(-c4ccc(OCc5ccccc5)c(C(F)(F)F)c4)no3)ccc21 [Compound 296, 5-{3-[4-(benzyloxy)-3-(trifluoromethyl)phenyl]-1,2,4-oxadiazol-5-yl}-1-(propan-2-yl)-1H-1,2,3-benzotriazole]"
6,> 316 nM,"COc1cccc(-c2nc(-c3ccc4c(c3)nnn4C(C)C)no2)c1 [Compound 299, 3-(1-isopropylbenzo-triazol-5-yl)-5-(3-methoxyphenyl)-1,2,4-oxadiazole]"
7,> 316 nM,"CCC1(CC)CC(=O)c2cc(-c3nc(-c4ccc(OC)nc4)no3)ccc2O1 [Compound 301, 2,2-diethyl-6-[3-(6-methoxy-3-pyridyl)-1,2,4-oxadiazol-5-yl]chroman-4-one]"
8,< 316 nM,"N#Cc1cc(-c2nc(-c3ccc4c(c3)CCC(=O)N4)no2)ccc1NCC1CC1 [Compound 302, 2-((cyclopropyl-methyl)amino)-5-(3-(2-oxo-1,2,3,4-tetrahydroquinolin-6-yl)-1,2,4-oxadiazol-5-yl)benzonitrile]"
9,> 316 nM,"CCC1(CC)CC(=O)c2cc(-c3nc(-c4cnccc4OC)no3)ccc2O1 [Compound 303, 2,2-diethyl-6-(3-(4-methoxypyridin-3-yl)-1,2,4-oxadiazol-5-yl)chroman-4-one]"
10,< 316 nM,"CC(C)n1nnc2cc(-c3noc(-c4ccccc4F)n3)ccc21 [Compound 307, 5-(2-fluorophenyl)-3-(1-isopropyl-1H-benzo[d][1,2,3]triazol-5-yl)-1,2,4-oxadiazole]"
11,> 316 nM,"Cc1ccccc1-c1noc(-c2ccc3nnn(C(C)C)c3c2)n1 [Compound 308, 6-[3-(2-methylphenyl)-1,2,4-oxadiazol-5-yl]-1-(propan-2-yl)-1H-1,2,3-benzotriazole]"
12,> 316 nM,"CCC1(CC)CC(=O)c2cc(-c3nc(-c4cccnc4)ns3)ccc2O1 [Compound 309, 2,2-diethyl-6-(3-(pyridin-3-yl)-1,2,4-thiadiazol-5-yl)chroman-4-one]"
13,< 316 nM,"CCC1(CC)CC(=O)c2cc(-c3nc(-c4cncc(O)c4)no3)ccc2O1 [Compound 310, 2,2-diethyl-6-[3-(5-hydroxy-3-pyridyl)-1,2,4-oxadiazol-5-yl]chroman-4-one]"
14,> 316 nM,"CCC1(CC)CC(=O)c2cc(-c3nc(-c4ccncc4O)no3)ccc2O1 [Compound 312, 2,2-diethyl-6-(3-(3-hydroxypyridin-4-yl)-1,2,4-oxadiazol-5-yl)chroman-4-one]"
15,< 316 nM,"CCC1(CC)CC(=O)c2cc(-c3nc(-c4ccncc4C(F)(F)F)no3)ccc2O1 [Compound 313, 2,2-diethyl-6-(3-(3-(trifluoromethyl)pyridin-4-yl)-1,2,4-oxadiazol-5-yl)chroman-4-one]"
16,> 316 nM,"CCC1(CC)CC(=O)c2cc(-c3nc(-c4ccnc(C(F)(F)F)c4)no3)ccc2O1 [Compound 314, 2,2-diethyl-6-(3-(2-(trifluoromethyl)pyridin-4-yl)-1,2,4-oxadiazol-5-yl)chroman-4-one]"
17,< 316 nM,"CCC1(CC)CC(=O)c2cc(-c3nc(-c4ccnc(C)c4)no3)ccc2O1 [Compound 315, 2,2-diethyl-6-(3-(2-methylpyridin-4-yl)-1,2,4-oxadiazol-5-yl)chroman-4-one]"
18,< 316 nM,"CC(=O)Nc1ccc(-c2noc(-c3ccc(NC(C)C)c(C#N)c3)n2)cc1 [Compound 316, N-(4-(5-(3-cyano-4-(isopropylamino)phenyl)-1,2,4-oxadiazol-3-yl)phenyl)acetamide]"
19,< 316 nM,"CC(C)n1ccc2cc(-c3nc(-c4ccccc4Cl)no3)ccc21 [Compound 320, 3-(2-chlorophenyl)-5-(1-isopropyl-1H-indol-5-yl)-1,2,4-oxadiazole]"
20,> 316 nM,"CC(C)n1ccc2cc(-c3nc(-c4ccccc4OC(F)(F)F)no3)ccc21 [Compound 321, 5-(1-isopropyl-1H-indol-5-yl)-3-(2-(trifluoro-methoxy)phenyl)-1,2,4-oxadiazole]"

# From patent US20230114241A1, “METHODS OF TREATING EPILEPSY USING THE SAME” (Trevena, Inc., priority 2019, published 2023)
